Measured values: patent publication US20130224795A1, “IMMOBILIZATION METHOD OF BIOACTIVE MOLECULES USING POLYPHENOL OXIDASE” (Ajou University Industry-Academic Cooperation Foundation, priority 2010, published 2013)

Columns and labels:
[1] = Contact angle measurement on immobilized substrate surfaces; assay type: physicochemical; settings: stainless steel or titanium; immobilization 30 min; tyramine with tyrosinase 0.4 KU/mL, dopamine without
Protocol: For experiments, dopamine and tyramine/tyrosinase were immobilized onto metal surfaces. In this regard, 450 μL of phosphate saline buffer was added to a piece of stainless steel or titanium metal and mixed with 40 μL of dopamine or tyramine having a concentration of 100 μg/mL. In the case of tyramine, tyrosinase having a concentration of 0.4 KU/mL was added in an amount of 10 μL. For effective comparison, a reaction was performed for 30 min. After immobilization, the specimens were washed three to five times with distilled water. An analysis was made of the results using contact angles and amine distributions on the surface. For contact angle measurements, droplets of 1 μL were deposited on a specimen surface and the angle at which the droplet interface meets the surface was measured using a contact angle meter (GBX Inc., France) and image analysis software.
Contact angles were measured to examine the change in hydrophilicity of bioactive molecule-immobilized surface. Droplets of 1 μL were deposited on a specimen surface after which contact angles were measured using a contact anglemeter (GBX Inc., France) equipped with image analysis software.

osteoblasts (MC3T3-E1) = assay: Cell proliferation assay (MTT); assay type: cell-based; settings: immobilized stainless steel; 1×10^4 cell/cm^2; 7 days; versus bare surface
Protocol: For cell proliferation assay, osteoblasts (MC3T3-E1) were cultured at a density of 1×10^4 cell/cm^2 for 7 days on RGD- or gelatin-immobilized stainless steel, titanium or polyurethane surfaces, followed by conducting an MTTassay. Each specimen is represented in the form of, for example, ST-RGD 0.17 which stands for the immobilization of RGD at a concentration of 0.17 μg/cm^2 on stainless steel.

| contact angle [1] | Molecule | proliferation of osteoblasts (osteoblasts (MC3T3-E1)) |
| --- | --- | --- |
| 30 ° | NCCc1ccc(O)cc1 [tyramine] | – |
| 45 ° | NCCc1ccc(O)c(O)c1 [dopa, dopamine] | – |
| – | gelatin-poly(ethylene glycol)-tyramine | improved the proliferation |
